This assay deals with P2Y purinoceptor 1 (Rattus norvegicus, UniProt P49651). As to the kind of experiment: Concentration required for calcium mobilization at rat purinergic 2Y1 receptor expressed in HEK 293 cells. In general terms: A change in cytosolic calcium serves as a functional read-out for many receptors and channels.

Molecules are shown by their SMILES.

P2Y purinoceptor 1, sequence (P49651 whole entry): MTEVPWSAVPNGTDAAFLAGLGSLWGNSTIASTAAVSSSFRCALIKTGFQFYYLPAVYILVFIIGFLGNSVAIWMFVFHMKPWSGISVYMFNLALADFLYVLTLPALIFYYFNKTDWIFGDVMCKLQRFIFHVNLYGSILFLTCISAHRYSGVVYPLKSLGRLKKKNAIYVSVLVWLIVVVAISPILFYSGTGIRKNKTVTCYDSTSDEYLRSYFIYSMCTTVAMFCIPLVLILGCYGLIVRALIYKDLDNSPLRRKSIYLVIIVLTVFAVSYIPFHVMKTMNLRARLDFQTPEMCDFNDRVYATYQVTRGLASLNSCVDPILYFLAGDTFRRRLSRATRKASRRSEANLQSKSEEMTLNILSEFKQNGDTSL

For `B[PH](O)(OC[C@H]1OC(n2cnc3c(N)nc(Cl)nc32)[C@H](O)[C@@H]1O)OP(=O)(O)OP(=O)(O)O` (stereo partly specified), the 50% effective concentration (EC50) worked out at 4.5 nM.

A word on the EC50: it is the concentration that produces a half-maximal response.

The values are drawn from BindingDB's records for doi:10.1021/jm049771u (Bar-Ilan University, 2004).
